Experimental data: BindingDB's records for PubMed 21481795 (Tufts Medical Center)

Assays:
[1] = biological target: 3-phosphoinositide-dependent protein kinase 1 (PDPK1) (Homo sapiens) (UniProt O15530); assay: Inhibition of human wild type PDK1 using bio-4xCHKT as substrate preincubated for 2 hrs followed by ATP addition and measured every 2 mins for […] by spectrophotometric analysis
[2] = biological target: Serine/threonine-protein kinase OSR1 (OXSR1) (Homo sapiens) (UniProt O95747); assay: Inhibition of human OSR1 preincubated for 2 hrs followed by ATP addition and measured every 2 mins for […] by spectrophotometric analysis
[3] = biological target: Tyrosine-protein kinase Tec (Homo sapiens) (UniProt P42680); assay: Inhibition of human wild type TEC using PolyEY as substrate preincubated for 2 hrs followed by ATP addition and measured every 2 mins for […] by spectrophotometric analysis

Measured: IC50

Sequence of Serine/threonine-protein kinase OSR1 (OXSR1) (Homo sapiens) (O95747 whole entry, looked up): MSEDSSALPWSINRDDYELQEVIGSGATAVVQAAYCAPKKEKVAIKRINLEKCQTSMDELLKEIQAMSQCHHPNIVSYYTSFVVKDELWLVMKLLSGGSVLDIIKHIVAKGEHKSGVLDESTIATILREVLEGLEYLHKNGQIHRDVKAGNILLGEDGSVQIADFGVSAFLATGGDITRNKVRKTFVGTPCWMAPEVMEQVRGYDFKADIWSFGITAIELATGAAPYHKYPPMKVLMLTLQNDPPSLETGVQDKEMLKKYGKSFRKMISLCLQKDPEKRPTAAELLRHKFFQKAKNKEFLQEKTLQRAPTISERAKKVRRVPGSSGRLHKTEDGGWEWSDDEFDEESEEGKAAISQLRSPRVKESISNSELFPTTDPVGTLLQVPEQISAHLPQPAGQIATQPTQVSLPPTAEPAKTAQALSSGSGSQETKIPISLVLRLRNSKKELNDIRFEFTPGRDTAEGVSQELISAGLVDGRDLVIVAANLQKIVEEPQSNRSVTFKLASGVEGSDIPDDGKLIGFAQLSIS
Sequence of Tyrosine-protein kinase Tec (Homo sapiens) (P42680 whole entry, looked up): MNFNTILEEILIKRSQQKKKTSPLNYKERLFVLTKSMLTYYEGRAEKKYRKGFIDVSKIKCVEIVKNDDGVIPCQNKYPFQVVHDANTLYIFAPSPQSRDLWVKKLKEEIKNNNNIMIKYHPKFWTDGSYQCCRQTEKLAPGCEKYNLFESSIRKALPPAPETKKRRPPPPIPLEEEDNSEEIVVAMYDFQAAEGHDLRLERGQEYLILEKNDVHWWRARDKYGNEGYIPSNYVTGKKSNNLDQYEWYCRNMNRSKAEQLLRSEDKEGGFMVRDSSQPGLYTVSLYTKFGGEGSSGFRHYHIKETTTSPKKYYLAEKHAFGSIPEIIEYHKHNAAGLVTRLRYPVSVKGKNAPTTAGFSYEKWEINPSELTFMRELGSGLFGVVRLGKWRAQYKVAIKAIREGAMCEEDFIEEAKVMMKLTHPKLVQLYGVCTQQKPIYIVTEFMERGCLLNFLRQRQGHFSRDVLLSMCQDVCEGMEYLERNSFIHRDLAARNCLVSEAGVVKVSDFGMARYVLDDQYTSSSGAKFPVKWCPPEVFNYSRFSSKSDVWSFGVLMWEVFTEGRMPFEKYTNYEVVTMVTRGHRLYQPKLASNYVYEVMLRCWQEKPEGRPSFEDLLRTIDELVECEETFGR

CNC(=O)c1cc(Oc2ccc(NC(=O)Nc3cc(C(C)(C)C)nn3-c3ccc4ncccc4c3)c(F)c2)ccn1 [Rebastinib]
> 1000 nM: [1] | [2] | [3]
